Measured values published in US20200046647A1, “EXOSOME-BASED NANOPARTICLE COMPOSITE AND METHOD FOR PREPARING THE SAME” (Korea University Research and Business Foundation, Sejong …, priority 2017, published 2020).
Counter-ions that a name gives are not always drawn.

Test: Drug release pattern analysis (dialysis bag, phosphate-buffered saline)
Type: physicochemical
Conditions: within 24 h; body temperature (37° C.); PBS pH 7.4; FIG. 7
Method: The core/shell nanoparticle composite prepared in Example 1-1 was sampled, placed in a dialysis bag (molecular weight filtration limit: 100,000), and impregnated with 30 ml of phosphate-buffered saline (PBS, pH 7.4). The amount of the sampled nanoparticle composite was determined such that 10 mg of the doxorubicin-HCl was present in the sample. The phosphate-buffered saline was stirred at 100 rpm while maintaining the temperature at 37.5° C. After the lapse of a predetermined time, 5 ml of the phosphate-buffered saline was sampled. The amount of the drug released was measured by […]. After sampling, the remaining phosphate-buffered saline was completely removed and replaced with a fresh one. The amount of the doxorubicin-HCl released was measured using a UV-Vis spectrometer (G1103A, Agilent, USA).
For comparison, each of doxorubicin-HCl (10 mg) and the liposome-based core/shell nanoparticle composite prepared in Comparative Example 1 (containing 10 mg of doxorubicin-HCl) was added to 10 mL of distilled water. The release behavior of the drug in the aqueous solution was measured by the same procedure as described above.

COc1cccc2c1C(=O)c1c(O)c3c(c(O)c1C2=O)C[C@@](O)(C(=O)CO)C[C@@H]3O[C@H]1C[C@H](N)[C@H](O)[C@H](C)O1 [doxorubicin-HCl]
drug released into phosphate-buffered saline: > 95%
